Here are results for 40 compounds from US9790169B2, “IDO inhibitors” (BRISTOL-MYERS SQUIBB COMPANY, priority 2015, dated 2017).

As usually defined, the IC50 is the concentration that inhibits the measured activity by half.

Chain of human IDO1 (P14902 whole entry): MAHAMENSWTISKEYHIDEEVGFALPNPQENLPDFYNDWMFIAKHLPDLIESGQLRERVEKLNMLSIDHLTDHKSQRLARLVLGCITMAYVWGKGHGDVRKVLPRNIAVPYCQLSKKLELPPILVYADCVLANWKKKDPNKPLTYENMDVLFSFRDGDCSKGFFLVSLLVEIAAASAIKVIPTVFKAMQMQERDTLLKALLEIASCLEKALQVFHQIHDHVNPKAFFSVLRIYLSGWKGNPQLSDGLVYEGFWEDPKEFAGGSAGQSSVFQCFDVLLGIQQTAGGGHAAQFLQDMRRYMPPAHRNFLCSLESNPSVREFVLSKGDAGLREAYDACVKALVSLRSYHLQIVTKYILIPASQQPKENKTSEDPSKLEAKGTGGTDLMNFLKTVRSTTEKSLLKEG

The test addresses human IDO1 (Homo sapiens, UniProt P14902). Nature of the test: Assessment of human IDO-1 inhibitory activity in HEK cells (human IDO1/HEK293 cells, kynurenine read-out with Ehrlich reagent, absorbance 490 nm). Type of test: cell-based. Details: expressed in transfected cells. To be noted: HEK Human IDO-1 cellular assay. Summed up: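 Kynurenine output from stably IDO1-transfected HEK293 cells (10,000/well, phenol red-free RPMI, 10% FBS) after 20 h compound exposure at 37 °C. The reaction was stopped with 0.2% TCA and heated 30 min at 50 °C, then the supernatant was mixed with Ehrlich reagent and read at 490 nm. IC50 was set against DMSO and a 500 nM reference standard as 0 and 100% inhibition.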
On to `CCOc1ccc(Nc2cc([C@@H](CC)CC(=O)O)ccc2N(CC)C2CCOCC2)nc1` (single isomer, unassigned) [Example 482], for which the IC50 is < 5 nM.

Consider `CCOc1ncc(Nc2cc(C(CC)CC(=O)O)ccc2N2C[C@@H](C)O[C@@H](C)C2)cn1` (single isomer, unassigned) [Example 756], for which the IC50 is > 50 nM.

For the compound `Cc1cc(CC(=O)Nc2cc(C(CC(=O)O)C3CC3)ccc2N(CC(C)C)C2CCCCC2)no1` (single isomer, unassigned) [Example 1251, 3-(4-(Cyclohexyl(isobutyl)amino)-3-(2-(5-methylisoxazol-3-yl)acetamido)phenyl)-3-cyclopropylpropanoic acid], the IC50 was < 50 nM.

For the compound `CCC(CC(=O)O)c1cc(NC(=O)Nc2ccc(C)cc2F)c(N(CC(C)C)C2CCCCC2)cc1F` (racemic) [Example 1119, (±)-3-(4-(Cyclohexyl(isobutyl)amino)-2-fluoro-5-(3-(2-fluoro-4-methylphenyl)ureido)phenyl)pentanoic acid], the IC50 is < 5 nM.

For `CCN(c1ccc(C(CC(=O)O)c2ccccc2)cc1NC(=O)Nc1ccc(Cl)cc1F)C1CCOCC1` (single isomer, unassigned) [Example 585, 3-(3-(3-(4-chloro-2-fluorophenyl)ureido)-4-(ethyl (tetrahydro-2H-pyran-4-yl)amino)phenyl)-3-phenylpropanoic acid], the IC50 is < 50 nM.

With `CCN(c1ccc(C(C)(C)CC(=O)O)cc1Nc1ccc2nc(C)sc2c1)C1CCOCC1` [Example 164, 3-(4-(ethyl(tetrahydro-2H-pyran-4-yl)amino)-3-((2-methylbenzo[d]thiazol-6-yl)amino)phenyl)-3-methylbutanoic acid], the IC50 is < 50 nM.

In the case of `CCOc1ccc(C(=O)Nc2cc(C(CC)CC(=O)O)ccc2N(CC(C)C)C2CCCCC2)cc1` (racemic) [Example 1073, 3-(4-(Cyclohexyl(isobutyl)amino)-3-(4-ethoxybenzamido)phenyl)pentanoic acid], the IC50 is > 50 nM.

With `CCC(CC(=O)O)c1ccc(N2CCC[C@@H]2C(C)(C)O)c(Nc2ccc(C#N)cc2)c1` (single isomer, unassigned) [Example 782], the IC50 was < 50 nM.

`CCOc1ncc(Nc2cc(C(CC)CC(=O)O)ccc2N(CC2CC2)C2CCOCC2)cn1` (single isomer, unassigned) [Example 705, 3-(4-((cyclopropylmethyl) (tetrahydro-2H-pyran-4-yl)amino)-3-((2-ethoxypyrimidin-5-yl)amino)phenyl)pentanoic acid]: the IC50 is < 5 nM.

As for `CCC(CC(=O)O)c1cc(F)c(N(CC(C)C)CC(C)C)c(Nc2ccc(F)cc2)c1` (single isomer, unassigned) [Example 100, 3-(4-(diisobutylamino)-3-fluoro-5-((4-fluorophenyl)amino)phenyl)pentanoic acid], the IC50 is < 5 nM.

With `CCc1cnc(Nc2cc([C@@H](CC)CC(=O)O)ccc2N(CC)C2CCOCC2)nc1` (single isomer, unassigned) [Example 457], the IC50 is < 50 nM.

Consider `CC[C@H](CC(=O)O)c1ccc(N(CC)C2CCOCC2)c(NC(=O)Nc2ccc3c(c2)CS(=O)(=O)C3)c1` (single isomer, unassigned) [Example 533], for which the IC50 is > 50 nM.

For the compound `C[C@@H]1CN(c2ccc(C(C)(C)CC(=O)O)cc2Nc2ccc(Cl)cc2)C[C@H](C)O1` [Example 733, 3-(3-((4-chlorophenyl)amino)-4-((2S,6R)-2,6-dimethylmorpholino)phenyl)-3-methylbutanoic acid], the IC50 was < 50 nM.

Take `CCC(CC(=O)O)c1cc(F)c(N(CC(C)C)CC(C)C)c(NC(=O)Cc2ccc(F)cc2F)c1` (single isomer, unassigned) [Example 1093 E2]: the IC50 was < 5 nM.

In the case of `CCOc1ccc(NC(=O)Nc2cc(C(COC)CC(=O)O)ccc2N(CC(C)C)C2CCCCC2)cc1` (single isomer, unassigned) [Example 1231, 3-(4-(Cyclohexyl(isobutyl)amino)-3-(3-(4-ethoxyphenyl)ureido)phenyl)-4-methoxybutanoic acid], the IC50 was < 50 nM.

In the case of `CC[C@H](CC(=O)O)c1ccc(N(CC2CC2)CC(C)(C)O)c(Nc2ccc(C#N)cc2)c1` (single isomer, unassigned) [Example 272], the half-maximal inhibitory concentration (IC50) was < 5 nM.

Consider `CCC(CC(=O)O)c1ccc(N2CCC[C@H]2C(C)(C)F)c(Nc2ccc3c(c2)OC(F)(F)O3)c1` (single isomer, unassigned) [Example 796], for which the IC50 is > 50 nM.

`CCN(c1ccc(C(C)CC(=O)O)cc1Nc1cnc(OC)nc1)C1CCOCC1` (single isomer, unassigned) [Example 633, 3-(4-(ethyl(tetrahydro-2H-pyran-4-yl)amino)-3-((2-methoxypyrimidin-5-yl)amino)phenyl)butanoic acid]: the IC50 was < 50 nM.

Turning to `CCC(CC(=O)O)c1ccc(N2CCC[C@H]2C(C)(C)O)c(NC(=O)Nc2ccc(OC)cc2)c1` (single isomer, unassigned) [Example 811], the IC50 is > 50 nM.

For the compound `COCC(CC(=O)O)c1ccc(N(CC2CC2)C2CCOCC2)c(Nc2ccc3nc(C)sc3c2)c1` (single isomer, unassigned) [Example 680, 3-(4-((cyclopropylmethyl) (tetrahydro-2H-pyran-4-yl)amino)-3-((2-methylbenzo[d]thiazol-6-yl)amino)phenyl)-4-methoxybutanoic acid], the IC50 is < 50 nM.

Turning to `CCC(CC(=O)O)c1ccc(N(CC(C)C)CC(C)(C)O)c(Nc2ccc3nc(C)sc3c2)c1` (racemic) [Example 452, 3-(4-((2-Hydroxy-2-methylpropyl)(isobutyl)amino)-3-((2-methylbenzo[d]thiazol-6-yl)amino)phenyl)pentanoic acid], the IC50 is > 50 nM.

With `CCC(CC(=O)O)c1cc(F)c(N(CC(C)C)CC(C)C)c(NC(=O)Cc2ccc(C)cc2)c1` (single isomer, unassigned) [980-1], the IC50 was < 5 nM.

Turning to `CCN(c1ccc(C(C)CC(=O)O)cc1Nc1cnc(C)nc1)C1CCOCC1` (single isomer, unassigned) [Example 623, 3-(4-(ethyl(tetrahydro-2H-pyran-4-yl)amino)-3-((2-methylpyrimidin-5-yl)amino)phenyl)butanoic acid], the IC50 is < 50 nM.

`CCN(c1ccc(C(CC(=O)O)c2ccccc2)cc1Nc1ccc2nc(C)sc2c1)C1CCOCC1` (single isomer, unassigned) [Example 579, 3-(4-(ethyl(tetrahydro-2H-pyran-4-yl)amino)-3-((2-methylbenzo[d]thiazol-6-yl)amino)phenyl)-3-phenylpropanoic acid]: the IC50 was > 50 nM.

In the case of `CCN(c1ccc([C@@H](COC)CC(=O)O)cc1Nc1ccc(F)cc1)C1CCOCC1` (single isomer, unassigned) [Example 375], the IC50 is < 5 nM.

For `CCN(c1ccc([C@@H](COC)CC(=O)O)cc1NC(=O)Nc1ccc(C)cc1)C1CCOCC1` (single isomer, unassigned) [Example 433], the IC50 was > 50 nM.

With `CC[C@H](CC(=O)O)c1ccc(N(CC)C2CCOCC2)c(Nc2cnc(OC)nc2)c1` (single isomer, unassigned) [Example 519], the IC50 was < 5 nM.

Take `CC[C@@H](CC(=O)O)c1ccc(N2CCOC[C@@H]2C(C)C)c(Nc2ccc(C#N)cc2)c1` (single isomer, unassigned) [Example 83]: the IC50 was < 50 nM.

`CCC(CC(=O)O)c1ccc(N(CCC(C)C)C2CCCCC2)c(NC(=O)Cc2ccc(Cl)cc2F)c1` (racemic) [Example 1088]: the IC50 is < 50 nM.

As for `CCC(CC(=O)O)c1cc(NC(=O)Nc2ccc3c(c2)OCO3)c(N(CC(C)C)C2CCCCC2)cc1F` (racemic) [Example 1110, (±)-3-(5-(3-(Benzo[d][1,3]dioxol-5-yl)ureido)-4-(cyclohexyl(isobutyl)amino)-2-fluorophenyl)pentanoic acid], the IC50 was < 5 nM.

`CCCN(c1ccc([C@@H](CC)CC(=O)O)cc1Nc1ccc(C#N)cc1)C1CCOCC1` (single isomer, unassigned) [Example 536]: the IC50 was < 5 nM.

On to `CC[C@H](CC(=O)O)c1ccc(N(CC)C2CCOCC2)c(NC(=O)Nc2ccc(Cl)nc2)c1` (single isomer, unassigned) [Example 532], for which the IC50 is < 50 nM.

`COCC(CC(=O)O)c1ccc(N(CC(C)C)C2CCCCC2)c(NC(=O)Nc2ccccc2F)c1` (single isomer, unassigned) [1125 E2]: the IC50 was < 5 nM.

As for `CCC(CC(=O)O)c1ccc(N(CC)C2CCS(=O)(=O)CC2)c(Nc2ccc(C#N)cc2)c1` (single isomer, unassigned) [Example 337, 3-(3-((4-cyanophenyl)amino)-4-((1,1-dioxidotetrahydro-2H-thiopyran-4-yl)(ethyl)amino)phenyl) pentanoic acid], the IC50 was < 5 nM.

On to `CC[C@@H](CC(=O)O)c1ccc(N(CC)C2CCOCC2)c(Nc2ccc(C#N)cc2)c1` (single isomer, unassigned) [Example 458], for which the IC50 was < 5 nM.

In the case of `CCN(c1ccc([C@@H](COC)CC(=O)O)cc1NC(=O)Nc1ccc(OC)cc1F)C1CCOCC1` (single isomer, unassigned) [Example 424], the IC50 is > 50 nM.

On to `Cc1ccc(CC(=O)Nc2cc(C(CC(=O)O)C(C)C)ccc2N(CC(C)C)CC(C)C)cc1` (racemic) [Example 1010], for which the IC50 was < 5 nM.

`CC(C)CN(CC(C)C)c1ccc(C(CC(=O)O)CN(C)C)cc1NC(=O)Nc1ccc(Cl)cc1F` (racemic) [Example 1000, (+/−)-3-(3-(3-(4-Chloro-2-fluorophenyl)ureido)-4-(diisobutylamino)phenyl)-4-(dimethylamino)butanoic acid]: the IC50 is > 50 nM.

With `COCC(CC(=O)O)c1ccc(N(CC(C)C)C2CCCCC2)c(NC(=O)Nc2ccc(Cl)cc2F)c1` (single isomer, unassigned) [985-1], the 50% inhibitory concentration (IC50) was < 5 nM.

For `CCc1ccc(Nc2cc(C(C)CC(=O)O)ccc2N2C[C@@H](C)O[C@@H](C)C2)cc1` (single isomer, unassigned) [Example 740], the IC50 was > 50 nM.
